Where two headings read alike, the source gives them in different places.
System: HCV pseudoparticles, genotype 1a HCV E1 and E2 envelope (H77C isolate)
Experiment: HCV pseudoparticle infection assay (luciferase reporter, Huh7 cells)
Type: cell-based, HCV genotype 1a (H77C)
Details: Hepatitis C virus, Huh-7, 48 h
[1] = read-out: EC50 (nM) 1a (H77C), class symbol, HCV pseudoparticle entry into Huh7 cells, luciferase measured 2 days after infection
[2] = read-out: EC50 (nM) 1a (H77C), HCV pseudoparticle entry into Huh7 cells, luciferase measured 2 days after infection, average of duplicates

Row | SMILES | EC50 [1] | EC50 [2]
1 | O=C1NCCCNCC2(COC2)COc2ccc(cc2)CNc2nc(nc(OCC(F)(F)F)n2)Nc2ccc1cc2 [Example 6003] | 0.01 to 10 nM | 
2 | CC1(C)CNC(=O)C(=O)Nc2ccc(cc2)OC/C=C\COc2ccc(cc2)CNc2nc(nc(OCC(F)(F)F)n2)Nc2ccc(cc2)C(=O)NC1 [Example 4005] | 10 to 1000 nM | 
3 | CC1(C)CNCC2(COC2)COc2ccc(cc2)CNc2nc(nc(OCC(F)(F)F)n2)Nc2ccc(cc2)C(=O)NC1 [Example 5001] | 0.01 to 10 nM | 0.796 nM
4 | C=C1COc2ccc(cc2)CNc2nc(nc(OCC(F)(F)F)n2)Nc2ccc(cc2)C(=O)N2CC3CN(C1)CC3C2 [Example 2004] | 10 to 1000 nM | 
5 | C=C1CNCC2CN(C2)C(=O)c2ccc(cc2)Nc2nc(nc(OCC(F)(F)F)n2)NCc2ccc(cc2)OC1 [Example 2001] | 0.01 to 10 nM | 
6 | CC1(C)CNC(=O)C(=O)Nc2ccc(cc2)OCCCOc2ccc(cc2)CNc2nc(nc(OCC(F)(F)F)n2)Nc2ccc(cc2)C(=O)NC1 [Example 4002] | 0.01 to 10 nM | 
7 | C[C@@H]1COc2ccc(cc2)CNc2nc(nc(OCC(F)(F)F)n2)Nc2ccc(cc2)C(=O)N2CC3(C)CN(C1)CC(C)(C2)C3=O [Example 3003] | 10 to 1000 nM | 34.3 nM
8 | O=C1c2ccc(cc2)Nc2nc(nc(OCC(F)(F)F)n2)NCc2ccc(cc2)OCCCN2CCCNCCCN1CCC2 [Example 1002] | 0.01 to 10 nM | 5.32 nM
9 | CC1(C)CNC(=O)C(=O)Nc2ccc(cc2)OCCOc2ccc(cc2)CNc2nc(nc(OCC(F)(F)F)n2)Nc2ccc(cc2)C(=O)NC1 [Example 4003] | 10 to 1000 nM | 23.6 nM
10 | C[C@H]1CNCC2(CNC(=O)c3ccc(cc3)Nc3nc(nc(OCC(F)(F)F)n3)NCc3ccc(cc3)OC1)COC2 [Example 6002] | 10 to 1000 nM | 
11 | C[C@@H]1CNCC2(CNC(=O)c3ccc(cc3)Nc3nc(nc(OCC(F)(F)F)n3)NCc3ccc(cc3)OC1)COC2 [Example 6004] | 10 to 1000 nM | 
12 | C=C1COc2ccc(cc2)CNc2nc(nc(OCC(F)(F)F)n2)Nc2ccc(cc2)C(=O)N2CC3(CN(C1)C3)C2 [Example 2003] | 0.01 to 10 nM | 3.08 nM
13 | O=C1NCC2(CC2)CNCC2(COC2)COc2ccc(cc2)CNc2nc(nc(OCC(F)(F)F)n2)Nc2ccc1cc2 [Example 6005] | 0.01 to 10 nM | 
14 | CC1(C)CNC(=O)C(=O)Nc2ccc(cc2)OCCCCOc2ccc(cc2)CNc2nc(nc(OCC(F)(F)F)n2)Nc2ccc(cc2)C(=O)NC1 [Example 4001] | 10 to 1000 nM | 
15 | CC1(C)CNC(=O)C(=O)Nc2ccc(cc2)OC/C=C/COc2ccc(cc2)CNc2nc(nc(OCC(F)(F)F)n2)Nc2ccc(cc2)C(=O)NC1 [Example 4004] | 10 to 1000 nM | 
16 | C[C@H]1CNC2C3CN(CC32)C(=O)c2ccc(cc2)Nc2nc(nc(OCC(F)(F)F)n2)NCc2ccc(cc2)OC1 [Example 3001] | 10 to 1000 nM | 
17 | C=C1COc2ccc(cc2)CNc2nc(nc(OCC(F)(F)F)n2)Nc2ccc(cc2)C(=O)N2CCCN(CC2)C1 [Example 2002] | 10 to 1000 nM | 
18 | O=C1c2ccc(cc2)Nc2nc(nc(OCC(F)(F)F)n2)NCc2ccc(cc2)OCCCN2CCC3(CCN1C3)C2 (stereo not drawn) [Example 1001] | 10 to 1000 nM | 160 nM
19 | O=C1NCC2(CNCCCOc3ccc(cc3)CNc3nc(nc(OCC(F)(F)F)n3)Nc3ccc1cc3)COC2 [Example 6001] | 0.01 to 10 nM | 
20 | C[C@@H]1COc2ccc(cc2)CNc2nc(nc(OCC(F)(F)F)n2)Nc2ccc(cc2)C(=O)N2CC3CCN(CC3C2)C1 (stereo partly drawn) [Example 3002] | 10 to 1000 nM | 116 nM

From US9624245B2, “Macrocyclic compounds as HCV entry inhibitors” (priority 2013, dated 2017)
